Source: patent publication US6716596B2, “Agents for replacement of NAD+/NADH system in enzymatic reactions” (The Regents of the University of California, priority 2001, dated 2004)
Structures can show the parent of a compound that is named as a salt.

Columns and labels:
[1] = regioselective reduction of biomimics with catalyst precursor (2) and sodium formate, followed by 1H NMR; details: for catalytic hydride transfer: reduction with (2) and HCO2Na, 1H NMR
Description: The relative rates, seen tabulated in FIG. 1C, were determined by observing disappearance of the pyridinium signals versus an internal standard, [(CH3)4N]OTf (tetramethylammonium triflate), during the first 2 hours, where the relative rate of 1-benzylnicotinamide triflate (1) was set to 1.0. The turnover frequencies were calculated by the formation of mmol of product/mmol of catalyst/hour. The total turnover number in 24 hours was ˜95 for all substrates that gave product. The reactions were conducted in presilylated J. Young NMR tubes and were followed by ^1H NMR.
The electronic effect of differently substituted nicotinamide substrates was determined by their relative rates. The relative rates of these compounds were determined by observing the disappearance of the pyridinium signals compared to interval standard, [(CH3)4N]OTf, during the first 2 hours, where the relative rate of compound (1a) was 1.0.
In a typical reaction, a J. Young NMR tube was charged, biomimic substrates (1a)-(1i) (1.0 mol), 2 (1% mol), and HCO2Na (1.1 mol) used as the hydride source and a Schlenk techniques were conducted to deoxygenate the solid mixture. A diluted solvent was added to these solids for compounds (1a)-(1i), the solvent was D2O-THF-d8 (1=1 0.75 mL, deoxygenated), and the NMR tube was placed in a liquid nitrogen bath. The contents were further degassed by two successive freeze-pump-thaw cycles. After thawing out the reaction mixture, the J. Young NMR tube was immediately put in a salted ice-bath and covered with aluminum foil. The reaction was then followed by ^1H NMR spectroscopy at 26° C. temperature, after a speedy thawing out.
The given relative rates and turnover frequencies were determined by decreasing integration of the corresponding pyridinium salts measured against an internal standard, (CH3)4N(OTf), during the first 2 h of the reaction. The ratios of the 1,4- and 1,6-dihydronicotinamide derivatives of compounds (1a), (1b) and (1d)-(1g) were obtained by comparison of the resonance signals with those of authentic samples, where the diagnostic signal is the resonance for —CH2Ph moiety which can be identified unambiguously in the ^1H NMR spectrum.

[2] = stability observations (light, air, solvent); type: physicochemical
[3] = competitive regioselective substrate reduction experiments with rhodium catalyst precursor (2); details: for times faster than compound (1): competitive reduction with compound (1); for competitive rate: reduced in the presence of compound (1a)
Description: In order to establish whether the σ-donating ability or the electron-withdrawing effect of the 3-substituent of the 1-benzylnicotinamide was the important parameter, several competitive substrate reduction experiments were performed.
For this purpose, the compound (1a) 1-benzylnicotinamide, was reduced with rhodium catalyst precursor (2) in the presence of its alternatively substituted derivatives, compounds (1e), substituted with —C(O)—CH3, (1g), substituted with (—CN), (1d), substituted with —C(S)NH2 or (1f), substituted with —C(O)OCH3, and their competitive reduction was determined.

[4] = molecular target: T1, horse liver alcohol dehydrogenase (HLADH) (Equus caballus, UniProt P00327); assay: HLADH enzymatic chiral reduction of ketones with biomimic co-factor regeneration; type: biochemical
T1 construct: purchased Sigma
Description: FIG. 7 presents structures of ketone substrates 12-15 used for biomimic chiral synthesis of corresponding alcohols. Conversion of the substrates 12-15 to their corresponding alcohols are expressed in % yield, and TOF in d^−1 and S-enantiomer excess (ee) are also shown for each conversion. Corresponding values obtained with NAD^+ are given in parenthesis. The S-enantiomeric excess (ee) was determined by GLC with a modified β-cyclodextrin capillary column.
[Cp*Rh(bpy)(H2O)]OTf2 (1.9 mg, 2.61×10^−3 mmol), sodium formate (17.8 mg, 261.69×10^−3 mmol), NAD^+ (8.1 mg, 11.23×10^−3 mmol) and HLADH (10 units) were placed in a 10 mL Schlenk flask, and Schlenk techniques were followed to deoxygenate the solid mixture.
Under positive argon pressure, 5 mL of potassium phosphate buffer (100 mM, pH=7.02, deoxygenated) and carbonyl substrate (83.58×10^−3 mmol, deoxygenated) were added via syringe. The reaction flask was immediately securely capped with a glass-stopper and shaken with a shaker in 30° C. water-bath. The reaction was monitored by gas chromatography (GC), equipped with a β-cyclodextrin column (Supelco, β-DEX-225), and the products were identified by comparing the retention time with the corresponding authentic chiral samples and were confirmed by GC-MS. The enantiomeric excess of the products was determined directly by their relative area in the chromatogram. The progress of the reaction was obtained by mixing the reaction aliquot with an internal standard (cyclohexanol in phosphate buffer), and then calibrating the measured relative area in the chromatogram with their corresponding response factors. The reaction was monitored for 24 hours.
The same procedure as described in section A was followed, except that NAD^+ was substituted with any one of the biomimic compounds of the invention.

T1 sequence (P00327 2-375 limits assumed): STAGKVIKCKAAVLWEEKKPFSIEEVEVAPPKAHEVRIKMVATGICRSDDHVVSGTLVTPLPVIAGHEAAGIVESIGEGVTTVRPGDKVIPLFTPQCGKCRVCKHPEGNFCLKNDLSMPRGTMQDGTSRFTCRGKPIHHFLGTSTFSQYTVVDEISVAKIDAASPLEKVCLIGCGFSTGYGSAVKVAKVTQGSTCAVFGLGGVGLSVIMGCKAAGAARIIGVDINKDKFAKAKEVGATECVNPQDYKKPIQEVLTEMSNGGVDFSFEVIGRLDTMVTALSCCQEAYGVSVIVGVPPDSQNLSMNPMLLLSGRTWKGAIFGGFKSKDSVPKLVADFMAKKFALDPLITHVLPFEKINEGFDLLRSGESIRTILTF

C[n+]1cccc(C(N)=O)c1 [1-methylnicotinamide, 1-Methylnicotinamide Triflate Salt]
relative rate ratio of 1-benzyl/1-methylnicotinamide [1]: 2.0
relative rate of regioselective reduction ([1]; disappearance of pyridinium signals vs [(CH3)4N]OTf during first 2 hours, compound (1a) set to 1.0): 0.5

Cc1ccc[n+](Cc2ccccc2)c1.O=S(=O)([O-])C(F)(F)F [Compound 1h, 1-Benzyl-3-methylpyridinium triflate]
catalytic hydride transfer [1]: not observed

[Cp*Rh(η^2-(N,N)-2,2′-bipyridyl)(H2O)](OTf)2 [Compound 2]
stability [2]: stable as a solid in the air

CCN(CC)C(=O)c1ccc[n+](Cc2ccccc2)c1 [Compound 1c, 1-Benzyl-N,N-diethylnicotinamide, Triflate Salt]
catalytic hydride transfer [1]: not observed

COC(=O)c1ccc[n+](Cc2ccccc2)c1.O=S(=O)([O-])C(F)(F)F [Compound 1f, 1-Benzyl-3-carbomethoxypyridinium Triflate]
times faster than compound (1) [3]: 1.2 times

COP(=O)(O)OC[C@H]1O[C@@H](N2C=CCC(C(N)=O)=C2)[C@H](O)[C@@H]1O
stability [2]: both light- and air-sensitive

N#Cc1ccc[n+](Cc2ccccc2)c1.O=S(=O)([O-])C(F)(F)F [Compound 1g, 1-Benzyl-3-cyanopyridinium triflate]
competitive rate [3]: 0.8

NC(=O)C1=CN(Cc2ccccc2)C=CC1 [Compound 3, 1-benzyl-1,4-dihydronicotinamide]
recognition by HLADH as hydride catalyst of the chiral conversion [4]: recognizes

O=S(=O)([O-])C(F)(F)F.c1ccc(C[n+]2ccccc2)cc1 [Compound 1i, 1-Benzyl-pyridinium triflate]
catalytic hydride transfer [1]: not observed

NC(=S)c1ccc[n+](Cc2ccccc2)c1 [Compound 1d, 1-Benzylthionicotinamide, Triflate Salt]
times faster than compound (1) [3]: 1.3 times

CC(=O)c1ccccc1 [Compound 14, acetophenone]
enantiomeric excess of chiral alcohol from the ketone substrate, S-enantiomer [4]: > 96 % ee
yield of chiral product [4]: 5%

CC(=O)c1ccc[n+](Cc2ccccc2)c1.O=S(=O)([O-])C(F)(F)F [Compound 1e, 1-Benzyl-3-acetylpyridinium Triflate]
competitive rate [3]: 0.9

CC(=O)Cc1ccccc1 [Compound 13, benzylmethylketone]
enantiomeric excess of chiral alcohol from the ketone substrate, S-enantiomer [4]: > 99 % ee
